{"source": "patent EP4678639A1", "about": "“SALT OF BENZIMIDAZOLE DERIVATIVE” (JW Pharmaceutical Corporation, priority 2023, dated 2024)", "key": {"[1]": {"conditions": "water", "procedure": "The measurement was conducted according to the method described under \"Solubility\" in the General Notices of Appendix 1 of the 12th Edition of the Korean Pharmacopoeia. Each solubility was expressed by measuring the solubility of the acid addition salt itself, without conversion to the tegoprazan freebase."}, "[2]": {"test": "Solid-state stress stability test (humidity 90 % RH)", "conditions": "for Initial (%) Degradant / Initial (%) Total Related substances: Table 9, initial"}, "[3]": {"test": "Solid-state stress stability test (temperature 60 °C)", "conditions": "for Change (%) Degradant: 1 month vs initial; for Initial (%) Degradant / Initial (%) Total Related substances: Table 8, initial", "procedure": "The analysis conditions are as follows.\n(§1) Operation and Calculation: The blank solution, standard solution, and test solution were sequentially tested under the instrument operating conditions according to the liquid chromatography method in the General Test Methods of the 12th Edition of the Korean Pharmacopoeia, and the amount of related substances was calculated using the following equation. Amount of each related; substance (%) = (AT)/(AS) × (CS)/(CT) × (Molecular weight; of the sample)/(Molecular weight; of the standard; product) × P × (1)/(RR; F) [formula] AT = Area of each related substance peak obtained from the test solution AS = Area of the tegoprazan peak obtained from the standard solution CS = Concentration of standard solution (mg/mL) CT = Concentration of test solution (mg/mL) P = Purity/Assay/Potency (%) of standard product RRF = Relative response factor (1.0)\n(§2) A solid-state stability comparative test was conducted on each of the above-mentioned prepared tegoprazan acid addition salts. The stability comparative test was conducted for 1 month under the conditions shown in Table 6 below in accordance with The International Council for Harmonisation of Technical Requirements for Pharmaceuticals for Human Use (ICH) guideline, and the purity of the acid addition salt, total related substances, and the content of degradants were measured by HPLC at the initial time point and after 1 month. Total related substances and degradants were measured according to the related substance test method (HPLC).\n2) Stress Stability Test (temperature 60 °C)"}, "[4]": {"test": "Photostability test, visible light (1.2 Mlux·hr) exposure", "conditions": "for Change (%) Degradant: Table 11, after exposure vs initial; for Initial (%) Degradant / Initial (%) Total Related substances: Table 11, initial; for After (%) Degradant / After (%) Total Related substances: Table 11 under heading Visible Light (1.2 Mlux-hr) Exposure Test"}, "[5]": {"test": "Photostability test, ultraviolet light (200 W·hr/m2) exposure", "conditions": "for After Ultraviolet Light Exposure (200 W hr/m2)(%) Degradant / After Ultraviolet Light Exposure (200 W hr/m2)(%) Total Related substances: Table 10, UV 200 W·hr/m2, PE bag; for Change (%) Degradant: Table 10, after UV exposure vs initial; for Initial (%) Degradant / Initial (%) Total Related substances: Table 10, initial", "procedure": "A photostability comparative test was conducted on each of the above-mentioned prepared tegoprazan acid addition salts. The test was conducted by exposing the sample to light with an energy of 200 W hr/m^2 of ultraviolet light and 1.2 Mlux hr of visible light in accordance with The International Council for Harmonisation of Technical Requirements for Pharmaceuticals for Human Use (ICH) guideline, with the samples packaged in a single PE bag and spread thinly enough to ensure exposure to the light source, taking humidity stability into consideration. The purity of the acid addition salts and the change in the amount of degradants at the initial time point and after exposure to ultraviolet light or visible light were measured by HPLC."}, "[6]": {"test": "Solid-state accelerated stability test (40 ± 2 °C/RH 75 ± 5 %)", "conditions": "for After 1 Month (%) Degradant / After 1 Month (%) Total Related substances / Change (%) Degradant: 40 ± 2 °C / RH 75 ± 5 %; for Change (%) Degradant: 1 month vs initial; for Initial (%) Total Related substances / Initial (%) Degradant: Table 7, initial; for Initial (%) Degradant: degradant of Formula 4", "procedure": "The analysis conditions are as follows.\nas §1, §2"}}, "note": "Counter-ions that a name gives are not always drawn.", "data": [{"smiles": "Cc1nc2c(O[C@H]3CCOc4cc(F)cc(F)c43)cc(C(=O)N(C)C)cc2[nH]1", "note": "[Hemisalicylate Salt]", "values": [{"measurement": "solubility / aqueous solubility", "setting": "[1]", "result": "≤ 1000", "unit": "µg/mL"}, {"measurement": "After 1 Month (%) Total Related substances", "setting": "[2]; 90 % RH, 1 month", "result": 1.759, "unit": "%"}, {"measurement": "Initial (%) Degradant", "setting": "[2]", "result": 0.001, "unit": "%"}, {"measurement": "Initial (%) Total Related substances", "setting": "[2]", "result": 0.208, "unit": "%"}, {"measurement": "After 1 Month (%) Degradant", "setting": "[3]; 60 °C", "result": 0.039, "unit": "%"}, {"measurement": "After 1 Month (%) Total Related substances", "setting": "[3]; 60 °C", "result": 0.268, "unit": "%"}, {"measurement": "Change (%) Degradant", "setting": "[3]; 60 °C", "result": 0.038, "unit": "%"}, {"measurement": "Initial (%) Degradant", "setting": "[3]", "result": 0.001, "unit": "%"}, {"measurement": "Initial (%) Total Related substances", "setting": "[3]", "result": 0.208, "unit": "%"}, {"measurement": "Change (%) Degradant", "setting": "[4]", "result": 0.244, "unit": "%"}, {"measurement": "Remarks", "setting": "[4]; Table 11, after exposure, appearance", "result": "Discolorat ion"}, {"measurement": "Initial (%) Degradant", "setting": "[4]", "result": 0.001, "unit": "%"}, {"measurement": "Initial (%) Total Related substances", "setting": "[4]", "result": 0.208, "unit": "%"}, {"measurement": "After (%) Degradant", "setting": "[4]", "result": 0.245, "unit": "%"}, {"measurement": "After (%) Total Related substances", "setting": "[4]", "result": 1.021, "unit": "%"}, {"measurement": "changes in appearance", "setting": "[4]; visible light exposure", "result": "changes in appearance"}, {"measurement": "After Ultraviolet Light Exposure (200 W hr/m2)(%) Degradant", "setting": "[5]", "result": 0.360, "unit": "%"}, {"measurement": "After Ultraviolet Light Exposure (200 W hr/m2)(%) Total Related substances", "setting": "[5]", "result": 1.360, "unit": "%"}, {"measurement": "Change (%) Degradant", "setting": "[5]", "result": 0.359, "unit": "%"}, {"measurement": "Remarks", "setting": "[5]; Table 10, after UV exposure, appearance", "result": "Discolorat ion"}, {"measurement": "Initial (%) Degradant", "setting": "[5]", "result": 0.001, "unit": "%"}, {"measurement": "Initial (%) Total Related substances", "setting": "[5]", "result": 0.208, "unit": "%"}, {"measurement": "changes in appearance", "setting": "[5]; ultraviolet light exposure", "result": "changes in appearance"}, {"measurement": "After 1 Month (%) Degradant", "setting": "[6]", "result": 0.004, "unit": "%"}, {"measurement": "After 1 Month (%) Total Related substances", "setting": "[6]", "result": 0.208, "unit": "%"}, {"measurement": "Change (%) Degradant", "setting": "[6]", "result": 0.003, "unit": "%"}, {"measurement": "Initial (%) Total Related substances", "setting": "[6]", "result": 0.208, "unit": "%"}, {"measurement": "Initial (%) Degradant", "setting": "[6]", "result": 0.001, "unit": "%"}, {"measurement": "purity change after 1 month", "setting": "[6]; accelerated stability", "result": "≤ 0.1", "unit": "%"}]}, {"smiles": "Cc1nc2c(O[C@H]3CCOc4cc(F)cc(F)c43)cc(C(=O)N(C)C)cc2[nH]1", "note": "[Maleate Salt]", "values": [{"measurement": "solubility / aqueous solubility", "setting": "[1]", "result": "≤ 1000", "unit": "µg/mL"}, {"measurement": "absorb moisture and deliquesce / melted", "setting": "[2]; 90 % RH", "result": "absorb moisture and deliquesce"}, {"measurement": "Remarks", "setting": "[2]; 90 % RH, 1 month, state of the solid", "result": "Melted"}, {"measurement": "Initial (%) Degradant", "setting": "[2]", "result": 0.027, "unit": "%"}, {"measurement": "Initial (%) Total Related substances", "setting": "[2]", "result": 0.357, "unit": "%"}, {"measurement": "total related substances increased after 1 month", "setting": "[3]; 60 °C", "result": "≥ 5.0", "unit": "%"}, {"measurement": "After 1 Month (%) Degradant", "setting": "[3]; 60 °C", "result": 1.248, "unit": "%"}, {"measurement": "After 1 Month (%) Total Related substances", "setting": "[3]; 60 °C", "result": 6.070, "unit": "%"}, {"measurement": "Change (%) Degradant", "setting": "[3]; 60 °C", "result": 1.221, "unit": "%"}, {"measurement": "Initial (%) Degradant", "setting": "[3]", "result": 0.027, "unit": "%"}, {"measurement": "Initial (%) Total Related substances", "setting": "[3]", "result": 0.357, "unit": "%"}, {"measurement": "Change (%) Degradant", "setting": "[4]", "result": 0.006, "unit": "%"}, {"measurement": "Initial (%) Degradant", "setting": "[4]", "result": 0.027, "unit": "%"}, {"measurement": "Initial (%) Total Related substances", "setting": "[4]", "result": 0.357, "unit": "%"}, {"measurement": "After (%) Degradant", "setting": "[4]", "result": 0.033, "unit": "%"}, {"measurement": "After (%) Total Related substances", "setting": "[4]", "result": 0.508, "unit": "%"}, {"measurement": "After Ultraviolet Light Exposure (200 W hr/m2)(%) Degradant", "setting": "[5]", "result": 0.032, "unit": "%"}, {"measurement": "After Ultraviolet Light Exposure (200 W hr/m2)(%) Total Related substances", "setting": "[5]", "result": 0.354, "unit": "%"}, {"measurement": "Change (%) Degradant", "setting": "[5]", "result": 0.005, "unit": "%"}, {"measurement": "Initial (%) Degradant", "setting": "[5]", "result": 0.027, "unit": "%"}, {"measurement": "Initial (%) Total Related substances", "setting": "[5]", "result": 0.357, "unit": "%"}, {"measurement": "After 1 Month (%) Degradant", "setting": "[6]", "result": 0.083, "unit": "%"}, {"measurement": "After 1 Month (%) Total Related substances", "setting": "[6]", "result": 0.679, "unit": "%"}, {"measurement": "Change (%) Degradant", "setting": "[6]", "result": 0.056, "unit": "%"}, {"measurement": "Initial (%) Total Related substances", "setting": "[6]", "result": 0.357, "unit": "%"}, {"measurement": "Initial (%) Degradant", "setting": "[6]", "result": 0.027, "unit": "%"}, {"measurement": "increase in total related substances after 1 month", "setting": "[6]; accelerated stability", "result": "≥ 0.3", "unit": "%"}]}]}
